Earlier results on two molecules are cited in publication PMC13029847, “Decoding the Liver–Blood Partitioning of Neonicotinoid Insecticides: Evidence from Paired Human Liver and Blood Biomonitoring” (Toxics, 2026).

For orientation: Solubility means the concentration that dissolves in the medium under given conditions.

For this data set the following is noted: ref PubChem Open Chemistry Database.

Converted amounts (≈) assume the structure as drawn.

For the molecule `CCN(Cc1ccc(Cl)nc1)/C(=C/[N+](=O)[O-])NC` [NIT, nitenpyram], the Solubility is 840 mg/mL (≈ 3100 mM).
Turning to `CN1COCN(Cc2cnc(Cl)s2)/C1=N\[N+](=O)[O-]` [THIA, thiamethoxam], the Solubility was 4.1 mg/mL (≈ 14.1 mM).
